According to US9056842B2, “Cosmetic use of substituted amino heterocylic carbamoyl analogs and related compounds” (Avon Products, Inc., priority 2011, dated 2015):

Test system: Human dermal fibroblasts
Experiment: Stimulation of collagen synthesis, procollagen type I C-peptide (PIP) EIA on conditioned medium
Assay type: cell-based
Details: compound at 0.0005% in DMSO, triplicate, 48-hour incubation; increase in collagen over the DMSO control
Method: Human dermal fibroblasts (Cascade Biologics, Portland, Oreg.) were plated at 10,000 cells/well in 96-well culture plates in supplemented medium (DMEM, 10% Fetal Bovine Serum, 1% Penicillin/Streptomycin and 1% L-Glutamine) overnight in humidified atmosphere of 10% CO2 at 37° C. […] DMSO solution was used a control. Following 48-hour incubation, the plates were removed from the incubator and the medium from each well was collected for the procollagen assay. Collagen production was measured using procollagen type I C-peptide (PIP) EIA kit (Takara Bio, Inc., Japan). […] The ELISA plate was incubated at 37° C. for 3 hours before the wells were washed four times with 400 μl of 1×PBS. At the end of wash, 100 μl of substrate solution (supplied with kit) was added to the wells and incubated at room temperature for 15 minutes. The reaction was stopped by adding 100 μl of 1N sulfuric acid to the wells. The absorbance was measured on a spectrophotometer at 450 nm wavelength. The amount of procollagen peptide in the conditioned medium was calculated from the standard curve. The stimulation of collagen production was shown as an increase in collagen over the control.

| SMILES | % Collagen Stimulation |
| --- | --- |
| CCOCCCNC(=O)c1coc(CN(CCCOCC)C(=O)c2cccc(Br)c2)n1 [Compound 1] | 68.77% |
| CCOCCCNC(=O)c1coc(CN(CCCOCC)C(=O)c2ccc(Cl)cc2)n1 [Compound 2] | 67.86% |
